# Test results reported in US4740504A, “Antihyperlipidemic amine boranes” (United States Borax & Chemical Corp., priority 1987, dated 1988).
# Legend:
# [1] = tested on: liver mitochondrial citrate exchange; test: Enzymatic studies in vitro: liver mitochondrial citrate exchange; format: biochemical; conditions: at all concentrations tested
# [2] = tested on: Hepatic lipoprotein lipase; test: Enzymatic studies in vitro: hepatic lipoprotein lipase induced by heparin; format: biochemical
# Sprague Dawley male rats = test: Hypolipidemic activity in Sprague Dawley rats, oral dosing (serum cholesterol and triglyceride); format: in vivo
# Procedure: N-n-Octadecyl-N,N-dimethylamine borane was suspended in an aqueous 1% carboxymethylcellulose solution, homogenized, and administered to CF1 male mice (~25 g.) intraperitoneally for 16 days or Sprague Dawley male rats (~350 g.) orally by an intubation needle for 14 days. On days 9 and 14 or 16, blood was obtained by tail vein bleeding and the serum separated by centrifugation for 3 minutes. The serum cholesterol levels were determined by a modification of the Liebermann-Burchard reaction. Serum was also collected on day 14 or 16 and the triglyceride content was determined by a Fisher-Hycel Triglyceride Test Kit.
# [3] = target: T1, acyl CoA cholesterol acyl transferase (Mus musculus, UniProt O88908); test: Enzyme activity after in vivo dosing: acyl CoA cholesterol acyl transferase; conditions: 8 mg/kg/day
# T1 construct: from tissue
# T1 sequence (O88908 1-525): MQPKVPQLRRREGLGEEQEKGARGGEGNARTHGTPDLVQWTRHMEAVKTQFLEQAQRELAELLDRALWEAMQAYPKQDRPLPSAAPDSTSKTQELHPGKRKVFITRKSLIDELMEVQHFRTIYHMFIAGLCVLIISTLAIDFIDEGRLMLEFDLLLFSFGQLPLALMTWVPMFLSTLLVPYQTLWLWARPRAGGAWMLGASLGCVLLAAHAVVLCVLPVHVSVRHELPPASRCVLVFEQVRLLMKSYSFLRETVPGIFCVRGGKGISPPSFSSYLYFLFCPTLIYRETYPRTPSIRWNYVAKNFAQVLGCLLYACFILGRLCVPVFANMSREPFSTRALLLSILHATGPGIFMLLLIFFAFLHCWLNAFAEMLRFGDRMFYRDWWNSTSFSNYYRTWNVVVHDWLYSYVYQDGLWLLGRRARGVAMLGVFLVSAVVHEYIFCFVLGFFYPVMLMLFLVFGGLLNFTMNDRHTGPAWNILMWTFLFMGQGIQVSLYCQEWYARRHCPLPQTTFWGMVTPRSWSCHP
# [4] = target: T2, ATP dependent citrate lyase (Mus musculus, UniProt Q91V92); test: Enzyme activity after in vivo dosing: ATP dependent citrate lyase; conditions: 16 mg/kg/day
# T2 construct: from tissue
# T2 sequence (Q91V92 1-1091): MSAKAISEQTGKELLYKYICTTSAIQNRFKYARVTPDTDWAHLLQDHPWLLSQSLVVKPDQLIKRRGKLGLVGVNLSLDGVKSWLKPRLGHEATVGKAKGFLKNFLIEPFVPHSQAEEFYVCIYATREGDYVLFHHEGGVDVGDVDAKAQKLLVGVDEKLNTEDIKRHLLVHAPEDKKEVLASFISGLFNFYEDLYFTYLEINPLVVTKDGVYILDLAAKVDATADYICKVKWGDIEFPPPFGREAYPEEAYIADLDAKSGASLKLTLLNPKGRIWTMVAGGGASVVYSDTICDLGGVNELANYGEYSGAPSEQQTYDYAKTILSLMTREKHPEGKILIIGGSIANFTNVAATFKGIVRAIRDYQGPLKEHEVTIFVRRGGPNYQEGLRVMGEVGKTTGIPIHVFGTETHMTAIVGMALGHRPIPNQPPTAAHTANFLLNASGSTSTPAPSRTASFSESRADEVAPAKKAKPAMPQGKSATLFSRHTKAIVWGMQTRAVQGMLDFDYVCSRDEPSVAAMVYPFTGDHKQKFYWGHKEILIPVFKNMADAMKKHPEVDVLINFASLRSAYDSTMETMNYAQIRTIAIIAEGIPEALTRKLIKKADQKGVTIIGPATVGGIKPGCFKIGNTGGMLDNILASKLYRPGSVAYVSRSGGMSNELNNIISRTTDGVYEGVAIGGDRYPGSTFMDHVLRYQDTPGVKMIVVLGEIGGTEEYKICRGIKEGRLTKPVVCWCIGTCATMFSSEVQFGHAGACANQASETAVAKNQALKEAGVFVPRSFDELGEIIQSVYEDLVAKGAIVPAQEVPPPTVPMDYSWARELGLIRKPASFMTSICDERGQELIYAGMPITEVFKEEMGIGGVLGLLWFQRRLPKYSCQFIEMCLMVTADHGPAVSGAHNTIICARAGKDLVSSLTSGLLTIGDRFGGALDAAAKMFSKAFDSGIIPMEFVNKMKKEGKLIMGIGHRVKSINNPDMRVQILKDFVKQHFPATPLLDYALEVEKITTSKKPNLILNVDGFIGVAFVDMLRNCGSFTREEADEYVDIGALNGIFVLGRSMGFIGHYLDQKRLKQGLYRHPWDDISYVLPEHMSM
# [5] = tested on: sn-Glycerol-3-phosphate acyl transferase; test: Enzyme activity after in vivo dosing: sn-glycerol-3-phosphate acyl transferase; conditions: 16 mg/kg/day
# [6] = tested on: hyperlipidemic induced mice; test: Hypolipidemic activity in diet-induced hyperlipidemic mice; format: in vivo; conditions: 8 mg./kg./day i.p., 12 days
# Procedure: The same compound was tested in mice that had been placed on a commercial diet to produce a "hyperlipidemic" state. […] Serum cholesterol and triglyceride levels were measured at that time. A similar lowering of cholesterol and triglyceride levels in the hyperlipidemic-induced mice was observed.
# [7] = target: T2, ATP dependent citrate lyase; test: Enzymatic studies in vitro: ATP dependent citrate lyase; format: biochemical; conditions: at all concentrations tested
# [8] = Sprague Dawley rats, oral administration at 20 mg/kg/day
# [9] = Table III, 20 mg/kg/day orally, Sprague Dawley rats
smiles,measurement,setting,value
"[BH3-][N+](C)(C)CCCCCCCCCCCCCCCCCC [I, N-n-Octadecyl-N,N-Dimethylamine Borane]",reduction of liver mitochondrial citrate exchange,[1],more than 50%
same,reduction of hepatic lipoprotein lipase activity,[2]; 100 μM,23%
same,reduction of hepatic lipoprotein lipase activity,[2]; 200 μM,23%
same,lowering of serum triglyceride levels,Sprague Dawley male rats; [8],35%
same,reduction of serum cholesterol levels,Sprague Dawley male rats; [8],54%
same,Serum Cholesterol Day 9 (X ± SD),Sprague Dawley male rats; [9],82 ± 8% of Control
same,Serum Cholesterol Day 14 (X ± SD),Sprague Dawley male rats; [9],46 ± 5% of Control
same,Serum Triglyceride Day 9 (X ± SD),Sprague Dawley male rats; [9],82 ± 7% of Control
same,Serum Triglyceride Day 14 (X ± SD),Sprague Dawley male rats; [9],65 ± 6% of Control
same,optimum dosage,Sprague Dawley male rats; in rats,about 20 mg./kg.
same,lowering of acyl CoA cholesterol acyl transferase activity,[3],52%
same,reduction of ATP dependent citrate lyase activity,[4],62%
same,reduction of sn-glycerol-3-phosphate acyl transferase activity,[5],33%
same,serum cholesterol level after treatment,"[6]; hyperlipidemic induced mice (elevated to 375 mg %, control 128 mg %)",180 mg %
same,reduction of serum cholesterol level,[6]; hyperlipidemic induced mice,52%
same,serum triglyceride level after treatment,"[6]; hyperlipidemic mice (elevated to 367 mg/dl, normal 137 mg/dl)",187 mg %
same,reduction of serum triglyceride level,[6]; hyperlipidemic mice,49%
same,reduction of ATP dependent citrate lyase activity,[7],more than 50%
